Earlier results as cited in paper PMC8067797, “An In Vivo Predictive Dissolution Methodology (iPD Methodology) with a BCS Class IIb Drug Can Predict the In Vivo Bioequivalence Results: Etoricoxib Products” (Pharmaceutics, 2021).
In brackets after ≈: the same amount, converted by molar mass. Several values for one entry are separate records, joined by “and”; a condition that tells them apart may be missing. Identical values can stand only once. Like-named read-outs stand apart in the source and are kept apart here.

What was measured:
[1] = not given; remark: listed apart in the source
[2] = not given; remark: listed apart in the source
Caco-2 = conditions: used for plasma simulations; ref [6]
[3] = set-up: method as in Schwartz et al. [23]; conditions: ref Schwartz et al. [23]
[4] = set-up: method as in Okumu et al. [7]; conditions: ref Okumu et al. [7]
[5] = curve fitting of literature data, ref [6]

SMILES: Cc1ccc(-c2ncc(Cl)cc2-c2ccc(S(C)(=O)=O)cc2)cn1 [ETO, Etoricoxib]
- Cs, solubility (pH 4.5, ref [7]): 440 µg/mL
- solubility in FaSSIF or simulated intestinal fluids (SIF phosphate buffer) (pH 6.8, ref [7]): 140 µg/mL (≈ 0.39 mM)
- solubility in the stomach (ref Mitra el al. [6]): 25000 µg/mL (≈ 69.7 mM)
- BCS classification ([1]; low solubility pH 4–7, high permeability): BCS class II
- logP ([1]; ref [14]): 2.79 and 2.794
- pKa ([1]; weak base, ref [6],[7]): 4.96
- Central compartment volume—Vc ([2]; average value, curve fitting of literature data, ref [6],[9],[21]): 27.40 L
- Distribution rate constant from central to peripheral compartment—k12 [2, 5]: 0.6180 h⁻¹
- Distribution rate constant from peripheral to central compartment—k21 [2, 5]: 0.2820 h⁻¹
- Elimination rate constant from central compartment—ke [2, 5]: 0.0899 h⁻¹
- Pharmacokinetics dose linearity ([2]; dose range 30–240 mg, ref [8]): linear
- oral bioavailability ([2]; oral dosing, ref [8]): up to 100%
- Oral absolute bioavailability ([2]; ref [9]): 83%
- Oral absolute bioavailability ([2]; ref [10]): practically complete
- Effective Permeability Small Intestine—Peff (Caco-2): 475 ×10⁻⁶ cm/s
- reduction of plasma Cmax ([3]; with calcium carbonate): 23%
- reduction of plasma Cmax ([3]; with magnesium and aluminum hydroxide): 15%
- precipitation in transfer system [4]: did not observe precipitation
- supersaturation ratio (dissolved concentration / equilibrium solubility) ([4]; transfer system): below 3
